According to patent US10238665B2, “Methods for treating fungal infections” (BRIGHAM YOUNG UNIVERSITY, priority 2014, dated 2019):
Values after ≈ are worked out from the molar mass of the structure shown. Where two headings read alike, the source gives them in different places.

Experiments:
[1] = system: 100 Candida auris isolates; assay: Antifungal effectiveness against Candida auris, MIC by CLSI M27-A3; format: cell-based
Experimental: The antifungal effectiveness of CSA-131 was tested against 100 Candida auris isolates. The C. auris isolates were form all over the world and covered know C. auris clades. The selection included isolated known to have elevated MIC values against fluconazole, the echinocandins, and/or amphotericin B.
Testing was performed according to the standards of the Clinical and Laboratory Standards Institute reference methodology M27-A3 (as of 2017). CSA-131 was dissolved in DMSO and diluted as described in M27-A3 to give a final DMSO concentration of <1%. Dilution plates were stored at −70° C. until used and were used within one week of being produced. All results were read visually after 24 hours of incubation at the lowest drug concentration at which there was a 50% decrease in growth by visual inspection. Quality control isolates C. parapsilosis ATCC22019 and C. krusei ATCC6258 were included on each day of testing although there are no standard QC values for these isolates against this compound. The MIC values for ATCC22019 and ATCC6258 remained within a tight range of 1-2 dilutions over the course of the study.

C. lusitaniae = assay: Additional MIC experiments (CSA-13 and squalamine); format: cell-based, Candida lusitaniae
Experimental: (§1) An antifungal agent is serially diluted two-fold in a desired medium to produce ten concentrations of the antifungal under investigation. The range used is chosen to include achievable serum levels of the drug. A standardized inoculum of either yeast cells or conidia is diluted in an equal volume of the desired medium. The yeast or conidia inoculum is incubated in the serially diluted drug wells at 35° C. Two wells are used as controls. The negative control well has only media and serves as a sterility control. The positive control well has the standardized inoculum with no drug, and is used to compare with the amount of growth in the drug wells.
(§2) Testing is reported as an MIC, or minimum inhibitory concentration in μg/ml. This number represents the concentration at which the organism's growth in inhibited 50% from the control well for yeasts, and 80% for dermatophytes and certain filamentous fungi/antifungal combinations. Amphotericin B readings are taken at 100% inhibition.
(§3) Fungal cultures were prepared as follows: • 1. Grow Candida sp. on a potato dextrose agar plate for 24 hrs. at 35° C. Grow Cryptococcus sp. for 48 hrs. • 2. Pick 5 colonies >1 mm in diameter to 5 ml of 0.85% sterile saline in a sterile 15 ml conical tube and vortex. • 3. Count the cells using a hemacytometer • 4. […]

C. glabrata = assay: Additional MIC experiments (CSA-13 and squalamine); format: cell-based, Candida glabrata
Experimental: as §1, §2, §3

C. tropicalis = assay: Additional MIC experiments (CSA-13 and squalamine); format: cell-based, Candida tropicalis
Experimental: as §1, §2, §3

Cryptococcus neofermans = assay: Additional MIC experiments (CSA-13 and squalamine); format: cell-based, Cryptococcus neoformans
Experimental: as §1, §2, §3

C. guilliermondii = assay: Additional MIC experiments (CSA-13 and squalamine); format: cell-based, Candida guilliermondii
Experimental: as §1, §2, §3

Candida albicans = assay: MIC determination, broth microdilution (CLSI M27-A2); format: cell-based; conditions: 35° C., 24 hrs, 50% growth inhibition
Experimental: (§4) CSA 8 and CSA 13 were dissolved in dimethyl sulfoxide (DMSO) to create stock solutions. These solutions were applied to fungal isolates to determine the minimum inhibitory concentration (MIC) for each CSA.
as §1, §2
(§5) Fungal cultures were prepared as follows: • 1. Grow Candida sp. on a potato dextrose agar plate for 24 hrs. at 35° C. Grow Cryptococcus sp. for 48 hrs. • 2. […]

[2] = system: C. albicans (fluconazole resistant); assay: as above; format: cell-based, Candida albicans; conditions: 35° C., 24 hrs, 50% growth inhibition
Experimental: as §4, §1, §2, §5

C. parapsilosis = assay: as above; format: cell-based, Candida parapsilosis; conditions: 35° C., 24 hrs, 50% growth inhibition
Experimental: as §4, §1, §2, §5

[3] = system: C. krusei (fluconazole resistant); assay: as above; format: cell-based, Candida krusei; conditions: 35° C., 24 hrs, 50% growth inhibition
Experimental: as §4, §1, §2, §5

C. krusei = assay: as above; format: cell-based, Candida krusei; conditions: 35° C., 24 hrs, 50% growth inhibition
Experimental: as §4, §1, §2, §5

[4] = system: C. galabrata (fluconazole resistant); assay: as above; format: cell-based, Candida glabrata; conditions: 35° C., 24 hrs, 50% growth inhibition
Experimental: as §4, §1, §2, §5

Aspergillus fumigatus = assay: MIC determination, broth microdilution (CLSI M38-A); format: cell-based; conditions: 35° C.
Experimental: as §4, §1, §2
(§6) Fungal cultures were prepared as follows: • 1. Grow Candida sp. on a potato dextrose agar plate for 24 hrs. at 35° C. Grow Cryptococcus sp. for 48 hrs. • 2. Pick 5 colonies >1 mm in diameter to 5 ml of 0.85% sterile saline in a sterile 15 ml conical tube and vortex. • 3. Count the cells using a hemacytometer • 4. Prepare a working suspension of yeast cells in RPMI-1640 to a final concentration of 2-5×10^3 CFU/ml (CFU=colony forming units or yeast cells) • 5. Prepare at least 2.5 ml of the working yeast suspension per drug per plate.
(§7) Plates were prepared as follows: • 1. Aseptically dispense RPMI-1640 into a 25 ml reservoir. • 2. Using a multichannel pipette with 8 tips, dispense 100 μl of RPMI-1640 into the wells of a 96 well round bottom plate in columns 11 and 12. These will serve as growth controls and sterility controls, respectively. • 3. Remove excess liquid from the reservoir. • 4. Add the lowest concentration of antifungal from the set of final concentrations to the reservoir, and using the same set of tips, dispense 100 μl into the wells of column 10. • 5. Repeat steps 4-5 for each final concentration, working from lowest to highest concentration into columns 9 through 1, until all columns are filled. • 6. Using a new set of pipette tips and a new reservoir, add 100 μl of inoculum to each well except […]. • 7. Run each organism in duplicate (i.e. add isolate one to rows 1 and 2, isolate two to rows 3 and four, etc.) • 8. Incubate the plates at 35° C. for 24 hrs. for Candida sp. and 72 hrs. for Cryptococcus sp. • Similar procedures are followed for Aspergillus sp., Trichophyton sp., and Microsporum sp.
(§8) Stock solutions of water-soluble and water insoluble antifungal agents were prepared according to standard laboratory procedures.
(§9) Antifungal susceptibility testing gives a numerical result expressed in μg/ml indicating an in vitro MIC, or minimum inhibitory concentration, of the drug being investigated. The Clinical and Laboratory Standards Institute (CLSI) has provided guidelines for standardized microdilution broth testing (CLSI M27-A2 for yeasts and CLSI M38-A for filamentous molds), which is followed in the above procedure. The CLSI has also published guidelines for interpretation of MIC results based on clinical correlation studies for yeasts.

Aspergillus niger = assay: as above; format: cell-based; conditions: 35° C.
Experimental: as §4, §1, §2, §6, §7, §8, §9

Cladosporium sp. = assay: as above; format: cell-based; conditions: 35° C.
Experimental: as §4, §1, §2, §6, §7, §8, §9

Microsporum canis = assay: as above; format: cell-based; conditions: 35° C., 80% growth inhibition for dermatophytes
Experimental: as §4, §1, §2, §6, §7, §8, §9

Penicillium sp. = assay: as above; format: cell-based; conditions: 35° C.
Experimental: as §4, §1, §2, §6, §7, §8, §9

Trichophyton rubrum = assay: as above; format: cell-based; conditions: 35° C., 80% growth inhibition for dermatophytes
Experimental: as §4, §1, §2, §6, §7, §8, §9

[5] = system: T. rubrum (terbinafine resistant); assay: as above; format: cell-based, Trichophyton rubrum; conditions: 35° C., 80% growth inhibition for dermatophytes
Experimental: as §4, §1, §2, §5

T. mentagrophytes = assay: as above; format: cell-based, Trichophyton mentagrophytes; conditions: 35° C., 80% growth inhibition for dermatophytes
Experimental: as §4, §1, §2, §5

T. tonsurans = assay: as above; format: cell-based, Trichophyton tonsurans; conditions: 35° C., 80% growth inhibition for dermatophytes
Experimental: as §4, §1, §2, §5

[6] = C. auris isolates with elevated echinocandin MICs, 7 isolates

CCCCCCCCCCCCNCCC[C@@H](C)[C@H]1CC[C@H]2[C@@H]3[C@H](OCCCN)C[C@@H]4C[C@H](OCCCN)CC[C@]4(C)[C@H]3C[C@H](OCCCN)[C@]12C [CSA-131]
MIC Range ([1]; 100 C. auris isolates, 24 hours, 50% decrease in growth): 0.5 to 1 µg/mL
MIC Range ([1]; C. auris Clade 1, 47 isolates): 0.5 to 1 µg/mL
MIC90 ([1]; C. auris Clade 2, 11 isolates): 1 µg/mL (≈ 1.36 µM)
MIC Range ([1]; C. auris Clade 2, 11 isolates): 0.5 to 1 µg/mL
MIC90 ([1]; C. auris Clade 3, 39 isolates): 1 µg/mL (≈ 1.36 µM)
MIC Range ([1]; C. auris Clade 3, 39 isolates): 0.5 to 1 µg/mL
MIC90 ([1]; C. auris Clade 4, 3 isolates): 1 µg/mL (≈ 1.36 µM)
MIC Range ([1]; C. auris Clade 4, 3 isolates): 0.5 to 1 µg/mL
MIC90 [1, 6]: 1 µg/mL (≈ 1.36 µM)
MIC Range [1, 6]: 0.5 to 1 µg/mL
MIC50 ([1]; Candidozyma auris, 24 h, 100 C. auris isolates, 24 hours, 50% decrease in growth, read-out: MIC50): 1 µg/mL (≈ 1.36 µM)
MIC ([1]; Candidozyma auris, 24 h, 100 C. auris isolates, 24 hours, 50% decrease in growth, read-out: MIC Mode): 1 µg/mL (≈ 1.36 µM)
MIC50 ([1]; Candidozyma auris, C. auris Clade 1, 47 isolates, read-out: MIC50): 1 µg/mL (≈ 1.36 µM)
MIC90 ([1]; Candidozyma auris, C. auris Clade 1, 47 isolates, read-out: MIC90): 1 µg/mL (≈ 1.36 µM)
MIC ([1]; Candidozyma auris, C. auris Clade 1, 47 isolates, read-out: MIC Mode): 1 µg/mL (≈ 1.36 µM)
MIC50 ([1]; Candidozyma auris, C. auris Clade 2, 11 isolates, read-out: MIC50): 1 µg/mL (≈ 1.36 µM)
MIC ([1]; Candidozyma auris, C. auris Clade 2, 11 isolates, read-out: MIC Mode): 1 µg/mL (≈ 1.36 µM)
MIC50 ([1]; Candidozyma auris, C. auris Clade 3, 39 isolates, read-out: MIC50): 1 µg/mL (≈ 1.36 µM)
MIC ([1]; Candidozyma auris, C. auris Clade 3, 39 isolates, read-out: MIC Mode): 1 µg/mL (≈ 1.36 µM)
MIC50 ([1]; Candidozyma auris, C. auris Clade 4, 3 isolates, read-out: MIC50): 0.5 µg/mL (≈ 0.682 µM)
MIC ([1]; Candidozyma auris, C. auris Clade 4, 3 isolates, read-out: MIC Mode): 0.5 µg/mL (≈ 0.682 µM)
MIC50 ([1]; Candidozyma auris, C. auris isolates with elevated echinocandin MICs, 7 isolates, read-out: MIC50): 1 µg/mL (≈ 1.36 µM)
MIC ([1]; Candidozyma auris, C. auris isolates with elevated echinocandin MICs, 7 isolates, read-out: MIC Mode): 1 µg/mL (≈ 1.36 µM)
MIC50 ([1]; Candidozyma auris, fluconazole Resistant C. auris isolates, 69 isolates): 1 µg/mL (≈ 1.36 µM)
MIC50 ([1]; Candidozyma auris, fluconazole Susceptible C. auris isolates, 30 isolates): 0.5 µg/mL (≈ 0.682 µM)
MIC ([1]; Candidozyma auris, read-out: MIC Mode, fluconazole Resistant C. auris isolates, 69 isolates): 1 µg/mL (≈ 1.36 µM)
MIC90 ([1]; Candidozyma auris, 100 C. auris isolates, 24 hours, 50% decrease in growth, read-out: MIC90): 1 µg/mL (≈ 1.36 µM)
activity against C. auris (in words) ([1]; collection of 100 C. auris isolates, 4 clades): showed activity against all C. auris among this collection
MIC90 ([1]; {}): 1 µg/mL (≈ 1.36 µM)
MIC Range ([1]; {}): 0.5 to 1 µg/mL

CC(C)[C@@H](CC[C@@H](C)[C@H]1CC[C@H]2[C@@H]3[C@H](O)C[C@H]4C[C@@H](NCCCNCCCCN)CC[C@]4(C)[C@H]3CC[C@]12C)OS(=O)(=O)O [Squalamine, squalamine, reference compound]
MIC (C. lusitaniae; Clavispora lusitaniae): 4 µg/mL
MIC (C. glabrata; Nakaseomyces glabratus): 2 µg/mL
MIC (C. tropicalis; Candida tropicalis): 4 µg/mL
MIC (Cryptococcus neofermans; Cryptococcus): 4 µg/mL
MIC (C. guilliermondii; Meyerozyma guilliermondii): 4 µg/mL

CCCCCCCCNCCC[C@@H](C)[C@H]1CC[C@H]2[C@@H]3[C@H](OCCCN)C[C@@H]4C[C@H](OCCCN)CC[C@]4(C)[C@H]3C[C@H](OCCCN)[C@]12C [CSA 13]
MIC (Candida albicans): 2 µg/mL
MIC [2]: 2 µg/mL
MIC (C. parapsilosis): 2 µg/mL
MIC [3]: 1 µg/mL
MIC (C. krusei): 2 µg/mL
MIC [4]: 2 µg/mL
MIC (Aspergillus fumigatus): 8 µg/mL
MIC (Aspergillus niger): 2 µg/mL
MIC (Cladosporium sp.): 0.5 µg/mL
MIC (Microsporum canis): 2 µg/mL
MIC (Penicillium sp.): 0.5 µg/mL
MIC (Trichophyton rubrum): 4 µg/mL
MIC [5]: 4 µg/mL
MIC (T. mentagrophytes): 2 µg/mL
MIC (T. tonsurans): 2 µg/mL
MIC (C. lusitaniae; C. lusitaniae): 0.5 µg/mL
MIC (C. glabrata; C. glabrata): 0.5 µg/mL
MIC (C. tropicalis; C. tropicalis): 0.5 µg/mL
MIC (Cryptococcus neofermans; Cryptococcus neofermans): 0.5 µg/mL
MIC (C. guilliermondii; C. guilliermondii): 0.5 µg/mL
